Laboratory results taken from ChEMBL document CHEMBL1201862, “PubChem BioAssay data set” (2004).
Calls of active or inactive are those of the source.

How the values were obtained:
[1] = target: T1, Carboxy-terminal domain RNA polymerase II polypeptide A small phosphatase 1 (Homo sapiens, UniProt Q9GZU7); assay: inhibitors of CTDSP1, concentration-response testing, biochemical assay, absorbance-based, actives from ultra-high-throughput screening (AID 540297); type: functional
T1 sequence (Q9GZU7 whole entry): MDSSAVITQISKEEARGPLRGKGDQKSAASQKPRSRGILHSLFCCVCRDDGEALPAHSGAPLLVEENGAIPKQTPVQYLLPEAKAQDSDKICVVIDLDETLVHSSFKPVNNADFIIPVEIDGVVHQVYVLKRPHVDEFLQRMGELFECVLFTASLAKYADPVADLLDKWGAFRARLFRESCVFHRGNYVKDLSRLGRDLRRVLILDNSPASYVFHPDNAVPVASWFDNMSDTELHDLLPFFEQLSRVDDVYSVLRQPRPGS

[2] = target: Glucose-6-phosphate 1-dehydrogenase (Homo sapiens, UniProt P11413); assay: human G6PD enzyme inhibitors, dose response, selectivity assay for P. falciparum G6PD inhibitor project, biochemical, fluorescence (AID 504792); type: functional
Chain of Glucose-6-phosphate 1-dehydrogenase (P11413 whole entry): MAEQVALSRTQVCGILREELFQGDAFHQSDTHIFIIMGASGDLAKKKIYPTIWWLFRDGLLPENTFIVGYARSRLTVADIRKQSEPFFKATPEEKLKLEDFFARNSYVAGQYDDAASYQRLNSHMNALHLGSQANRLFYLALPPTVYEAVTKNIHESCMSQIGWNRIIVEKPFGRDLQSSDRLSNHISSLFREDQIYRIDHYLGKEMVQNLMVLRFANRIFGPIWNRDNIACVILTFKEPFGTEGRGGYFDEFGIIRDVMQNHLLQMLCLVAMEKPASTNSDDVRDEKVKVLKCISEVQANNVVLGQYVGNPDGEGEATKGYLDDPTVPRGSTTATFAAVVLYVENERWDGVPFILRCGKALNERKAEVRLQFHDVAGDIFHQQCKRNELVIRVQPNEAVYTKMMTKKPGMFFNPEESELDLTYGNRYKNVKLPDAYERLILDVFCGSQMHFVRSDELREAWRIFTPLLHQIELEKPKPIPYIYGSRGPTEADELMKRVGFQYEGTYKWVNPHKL

[3] = target: T2, Calpain-2 catalytic subunit (Sus scrofa, UniProt P43367); assay: pig calpain II inhibitor potency, dose response, biochemical, fluorogenic peptide substrate (AID 1420); type: functional
T2 sequence (P43367 whole entry): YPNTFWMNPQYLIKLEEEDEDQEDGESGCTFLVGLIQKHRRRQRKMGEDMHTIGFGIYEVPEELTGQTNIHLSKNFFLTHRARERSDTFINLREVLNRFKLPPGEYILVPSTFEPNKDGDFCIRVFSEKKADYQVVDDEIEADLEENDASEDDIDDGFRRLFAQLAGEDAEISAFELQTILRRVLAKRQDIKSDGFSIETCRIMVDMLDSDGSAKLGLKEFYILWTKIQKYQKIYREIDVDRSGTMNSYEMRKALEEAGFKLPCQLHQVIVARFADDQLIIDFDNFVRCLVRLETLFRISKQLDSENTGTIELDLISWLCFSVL

[4] = NIH-3T3 fibroblast cytotoxicity, dose response, cytotoxicity control, cell-based, fluorescence, Alamar Blue, secondary assay (AID 2327); type: functional;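 also: NIH-3T3 mouse fibroblasts cultured with fluconazole at 8 µg/mL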
[5] = C. albicans growth with fluconazole, confirmation, fluorescence, retest (AID 2467); type: functional, cell-based
[6] = target: FAD-linked sulfhydryl oxidase ALR (Homo sapiens, UniProt P55789); assay: inhibitors of human ALR sulfhydryl oxidase, dose response, biochemical, H2O2 detection, luminescence, cherry-pick (AID 493248)
Chain of FAD-linked sulfhydryl oxidase ALR (P55789 whole entry): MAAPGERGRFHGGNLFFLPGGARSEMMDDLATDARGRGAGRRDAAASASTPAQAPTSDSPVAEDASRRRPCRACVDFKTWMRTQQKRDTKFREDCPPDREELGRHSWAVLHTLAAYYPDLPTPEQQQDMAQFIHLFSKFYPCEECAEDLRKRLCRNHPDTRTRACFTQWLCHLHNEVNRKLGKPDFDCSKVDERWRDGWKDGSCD

cells [7] = type: functional, cell-based
cells [8] = type: functional, cell-based; remark: listed apart in the source
Cytochrome P450 2D6 = Cytochrome P450 2D6 (Homo sapiens, UniProt P10635);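 also: CYP2D6 member of a cytochrome P450 panel assay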
Chain of Cytochrome P450 2D6 (P10635 whole entry): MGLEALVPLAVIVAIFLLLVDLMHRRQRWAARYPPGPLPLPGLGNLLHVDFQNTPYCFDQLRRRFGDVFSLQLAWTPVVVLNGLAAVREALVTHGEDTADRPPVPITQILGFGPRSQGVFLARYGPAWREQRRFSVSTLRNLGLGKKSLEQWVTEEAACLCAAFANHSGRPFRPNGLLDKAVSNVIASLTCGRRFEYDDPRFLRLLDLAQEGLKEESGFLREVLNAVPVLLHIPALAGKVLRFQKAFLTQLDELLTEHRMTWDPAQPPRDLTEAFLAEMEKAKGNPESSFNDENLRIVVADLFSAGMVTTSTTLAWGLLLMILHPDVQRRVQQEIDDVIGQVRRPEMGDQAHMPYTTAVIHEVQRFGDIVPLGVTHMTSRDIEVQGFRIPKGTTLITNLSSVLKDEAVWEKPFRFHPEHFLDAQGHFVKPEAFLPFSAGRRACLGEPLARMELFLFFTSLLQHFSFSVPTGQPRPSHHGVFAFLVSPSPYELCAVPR

[9] = HEp-2 cell cytotoxicity, dose response, cytotoxicity control for RSV inhibitor project, HTS (AID 2410); type: functional; conditions: human respiratory syncytial virus
[10] = HepG2 cell cytotoxicity, dose response, cytotoxicity control for Shn3 inhibitor project, CellTiter-Glo, cherry-picked (AID 624134); type: functional, cell-based
Paired box protein Pax-8 = Paired box protein Pax-8 (Homo sapiens, UniProt Q06710); assay: inhibitors of PAX8-driven TPO luciferase reporter, dose response, RMG-I cells, cherry-pick (AID 687027); type: functional, cell-based;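 also: luciferase reporter driven by Pax8 target thyroperoxidase promoter measured by SteadyGlo luminescence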
Chain of Paired box protein Pax-8 (Q06710 whole entry): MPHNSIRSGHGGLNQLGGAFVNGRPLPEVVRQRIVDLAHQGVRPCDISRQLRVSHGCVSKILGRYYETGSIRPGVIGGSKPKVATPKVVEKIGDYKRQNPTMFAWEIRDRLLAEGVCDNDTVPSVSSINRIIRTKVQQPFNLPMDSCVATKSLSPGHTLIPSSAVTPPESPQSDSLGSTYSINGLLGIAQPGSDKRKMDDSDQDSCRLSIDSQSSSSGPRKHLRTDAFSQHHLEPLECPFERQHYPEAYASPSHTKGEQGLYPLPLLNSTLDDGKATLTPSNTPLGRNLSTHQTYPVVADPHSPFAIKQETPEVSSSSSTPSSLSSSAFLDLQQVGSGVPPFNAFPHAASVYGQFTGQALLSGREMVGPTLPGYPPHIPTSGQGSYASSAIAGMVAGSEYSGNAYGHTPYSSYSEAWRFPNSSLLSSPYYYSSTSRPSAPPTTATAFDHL

Streptokinase A = target: T3, Streptokinase A (Streptococcus pyogenes serotype M1, UniProt P10520); assay: S. pyogenes streptokinase expression inhibitors, potency, dose response, plasminogen activation absorbance, OD405 (AID 1914); type: functional, Streptococcus pyogenes M1 GAS;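 also: secreted streptokinase activity via plasminogen activation per viability signal from cell pellet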
T3 sequence (P10520 whole entry): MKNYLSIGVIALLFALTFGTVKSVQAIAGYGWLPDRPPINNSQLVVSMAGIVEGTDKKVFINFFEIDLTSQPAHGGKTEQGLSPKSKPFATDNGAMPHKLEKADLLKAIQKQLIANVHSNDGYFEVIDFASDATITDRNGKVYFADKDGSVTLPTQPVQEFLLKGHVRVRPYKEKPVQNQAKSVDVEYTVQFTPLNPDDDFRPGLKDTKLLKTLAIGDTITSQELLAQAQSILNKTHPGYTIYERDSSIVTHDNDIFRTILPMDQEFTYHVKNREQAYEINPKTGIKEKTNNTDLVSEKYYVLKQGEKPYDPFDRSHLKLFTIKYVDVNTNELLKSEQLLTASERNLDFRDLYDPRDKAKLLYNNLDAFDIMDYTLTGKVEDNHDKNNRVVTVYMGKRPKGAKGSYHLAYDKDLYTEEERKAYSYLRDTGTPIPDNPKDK

[11] = tested on: Streptococcus sp. 'group A'; assay: growth inhibition of control SK(-) GAS strain, dose response, counter-screen for streptokinase expression inhibitor project, luminescence, kanamycin, BacTiterGlo, confirmation (AID 1900); type: functional, organism-based
[12] = control 3'UTR Renilla luciferase suppression, dose response, counter-screen for Shn3 inhibitor project, cell-based, Clone20-Shn3RL, cherry-picked (AID 624133); type: functional
[13] = Shn3 3'UTR reporter inhibitors, dose response, cell-based, Clone20 osteoblasts, firefly luciferase, cherry-picked (AID 624132); type: functional;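 also: firefly luciferase luminescence from reporter carrying the Shn3 3'UTR in osteoblasts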
Streptococcus = assay: Group A Streptococcus viability loss, dose response, counter-screen for streptokinase expression inhibitor project, luminescence, BacTiterGlo (AID 1915); type: functional, organism-based;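 also: potency for reduction of bacterial viability or growth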
[14] = target: T4, Heat shock factor protein 1 (Mus musculus, UniProt P38532); assay: inhibition of MG132-induced HSE-luciferase signal, confirmation, cell-based, NIH3T3, luminescence, dose retest (AID 2382); type: functional;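 also: NIH3T3 fibroblasts with HSF1-driven luciferase reporter stressed by proteasome inhibitor MG132; luminescence from HSF1-driven luciferase expression after 8 hours of MG132 stress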
T4 sequence (P38532 whole entry): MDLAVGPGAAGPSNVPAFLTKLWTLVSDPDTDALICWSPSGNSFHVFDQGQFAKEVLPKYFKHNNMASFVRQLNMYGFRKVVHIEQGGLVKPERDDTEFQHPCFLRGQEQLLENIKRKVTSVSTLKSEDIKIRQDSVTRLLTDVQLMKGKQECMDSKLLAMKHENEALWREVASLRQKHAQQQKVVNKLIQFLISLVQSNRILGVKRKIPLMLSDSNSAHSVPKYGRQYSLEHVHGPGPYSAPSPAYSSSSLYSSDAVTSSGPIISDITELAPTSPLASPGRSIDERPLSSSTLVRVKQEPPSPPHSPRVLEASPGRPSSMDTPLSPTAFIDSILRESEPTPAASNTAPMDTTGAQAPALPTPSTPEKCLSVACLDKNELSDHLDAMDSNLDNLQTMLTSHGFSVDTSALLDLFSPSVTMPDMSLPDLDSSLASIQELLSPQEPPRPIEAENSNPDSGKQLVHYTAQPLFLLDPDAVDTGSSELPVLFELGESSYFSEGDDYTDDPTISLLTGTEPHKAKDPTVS

[15] = inhibitors of intracellular T. cruzi replication, confirmation, NIH3T3 host cells, beta-gal luminescence (AID 2044); type: functional, cell-based;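 also: intracellular parasites grown in NIH/3T3 mouse fibroblasts as host cells; luminescent beta-galactosidase reporter signal from transgenic T. cruzi replicating inside host cells; inhibitors lower the luminescence signal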
[16] = cytotoxicity toward NIH3T3 fibroblasts, dose response, counter-screen, cell-based, ATP luminescence, mouse fibroblasts (AID 2010); type: functional;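 also: cells exposed to compound for about 90 hours before reading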

For `Cc1oc2c(C)c3oc(=O)c(CC(=O)N[C@@H](CCCNC(N)=O)C(=O)O)c(C)c3cc2c1C`, which IC50 [1] is on record?
The IC50 was 9.59 µM (active).

Which IC50 [2] does the source give for `CCn1c(N)c(C(=O)NC)sc1=S` here?
The IC50 was > 80 µM (inactive).

Which IC50 [3] does the source give for `CCn1c(SCc2ccc(F)cc2)nnc1C1CCN(S(=O)(=O)c2ccc(OC)cc2)CC1` here?
Its IC50 is 26.2 µM (not active).

Which EC50 [4] does the source give for `CCn1c(=O)c(C(=O)NCc2cccnc2)c(O)c2ccccc21` here?
The EC50 was > 150 µM (inactive).

What about the EC50 [5] of the same molecule?
Its EC50 is > 38 µM (not active).

Which IC50 [3] does the source give for `COc1ccc(OC)c(NC(=O)c2ccc3c(=O)n(CCc4ccccc4)c(=S)[nH]c3c2)c1` here?
Its IC50 is 13 µM (not active).

With `O=C(CNC(=O)c1ccccc1)NCC(=O)OCC(=O)c1ccc([N+](=O)[O-])cc1` as the molecule, how does the IC50 [2] read?
Its IC50 is > 80 µM (inactive).

Which EC50 [4] does the source give for `COc1ccc(NC(=O)NC(C)c2ccccc2)cc1` (stereo not given) here?
The EC50 was 73.5 µM (active).

What about the EC50 [5] of the same molecule?
The EC50 was > 38 µM (not active).

Which results are given for `CCCc1cc(C(=O)Nc2sc3c(c2C#N)CCC3)no1`?
EC50 [4]: > 150 µM (inactive); EC50 [5]: 1.02 µM (active)

What does the source list for `COc1ccc2c(c1OC)C(=O)N1N=C(c3ccc(O)cc3)CC21` (stereo not given)?
EC50 [4]: > 150 µM (inactive); AC50 [6]: 1.11 µM (active)

For `C[N+]1(CC(=O)OCCCc2ccccc2)CCCC1`, which IC50 [1] is on record?
The IC50 was 6.36 µM (active).

Which IC50 [1] does the source give for `CCc1ccc(NC(=O)C[S+]([O-])CC(=O)Nc2ccc(F)cc2F)cc1` (stereo not given) here?
The IC50 was 11.2 µM (active).

For `CCC(C)c1ccccc1OCCn1ccnc1` (stereo not given), which IC50 [2] is on record?
The IC50 was > 80 µM (inactive).

Which IC50 [1] does the source give for `Cc1cc(=O)oc2cc(OCC(=O)N3c4ccccc4NC(=O)C3(C)C)ccc12` here?
Its IC50 is 8.21 µM (active).

Which results are given for `Cc1cc(C(=O)O)oc(=O)c1`?
EC50 (cells [7]): 58.9 µM (active); EC50 (cells [8]): > 350 µM (not active)

Which IC50 [1] does the source give for `CCCCn1c(N)c(-c2nc3ccccc3o2)c2c([N+](=O)[O-])nn(C)c(=O)c21` here?
The IC50 was 4.75 µM (active).

Which IC50 [3] does the source give for `Cc1ccc(CSc2ccc3nnc(-c4cccnc4)n3n2)cc1` here?
The IC50 was 5.64 µM (active).

With `COc1ccc(CNC(=O)C2CCN(S(=O)(=O)c3ccc(-c4nn[nH]n4)cc3)CC2)cc1` as the molecule, how does the IC50 [3] read?
The IC50 was 14.9 µM (not active).

Which EC50 [4] does the source give for `O=C(Nc1ccccc1N1CCOCC1)c1cc(F)cc(F)c1` here?
Its EC50 is > 160 µM (inactive).

What about the EC50 [5] of the same molecule?
The EC50 was 1.64 µM (active).

With `COc1cccc(C2=CC(c3ccccc3)n3nnnc3N2)c1` (stereo not given) as the molecule, how does the IC50 [3] read?
The IC50 was 2.32 µM (not active).

And the AC50 (Cytochrome P450 2D6)?
The AC50 was 31.6 µM (inconclusive).

What does the source list for `COc1ccc2c(c1)-c1nc(NC(=O)c3ccco3)sc1CC2`?
EC50 (cells [7]): 23 µM (active); CC50 [9]: 18.4 µM (active); EC50 (cells [8]): > 350 µM (not active)

For `Cc1ccc(C)c(N2CCN(C(=O)CCCCCn3c(=S)[nH]c4ccc(N5CCOCC5)cc4c3=O)CC2)c1`, which AC50 [10] is on record?
Its AC50 is 5.02 µM (active).

And the AC50 (Paired box protein Pax-8)?
The AC50 was 5.97 µM (active).

And the EC50 (Streptokinase A)?
Its EC50 is > 150 µM (not active).

What about the EC50 [11] of the same molecule?
Its EC50 is 6.52 µM (active).

And the AC50 [12]?
Its AC50 is 3.48 µM (active).

And the AC50 [13]?
The AC50 was 1.99 µM (active).

And the EC50 (Streptococcus)?
Its EC50 is 140 µM (active).

What about the EC50 [14] of the same molecule?
Its EC50 is 5.28 µM (active).

And the EC50 [15]?
Its EC50 is 0.348 µM (active).

What about the EC50 [16] of the same molecule?
Its EC50 is 16.5 µM (active).

For `CC(=O)Nc1ccc(S(=O)(=O)[N-]C2=C([n+]3ccn(-c4ccccn4)c3)C(=O)c3ccccc3C2=O)cc1`, which EC50 (cells [7]) is on record?
The EC50 was > 350 µM (not active).

And the EC50 (cells [8])?
Its EC50 is > 350 µM (not active).

With `CC(C)NC(=O)C1CCCN(S(C)(=O)=O)C1` (stereo not given) as the molecule, how does the IC50 [3] read?
Its IC50 is 7.4 µM (not active).

With `Cc1ccc(OCC(=O)NNC(=O)C(C)Sc2ncnc3sc(C)c(C)c23)cc1` (stereo not given) as the molecule, how does the IC50 [3] read?
The IC50 was 2.51 µM (not active).

Which IC50 [3] does the source give for `C=C(C)CNC(=S)N/N=C/c1c(F)cccc1F` here?
The IC50 was 20.3 µM (not active).

Which IC50 [2] does the source give for `COc1cccc(-c2c(C(=O)N/N=C/c3ccc(C)o3)nnn2-c2nonc2N)c1` here?
The IC50 was > 80 µM (inactive).
